# PubChem BioAssay (NCI)
#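 The concentration for 50% growth inhibition is given as GI50. Definition used: TGI = concentration required for complete inhibition of growth.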
# Assays:
# Assay in all cases: NCI tumour cell line growth inhibition, 384-well format
# [1] = tested on: SK-OV-3 ovarian
# [2] = tested on: MDA-MB-435 melanoma
# [3] = tested on: MDA-MB-468 breast
# [4] = tested on: OVCAR-4 ovarian
# [5] = tested on: A498 renal
# [6] = tested on: M14 melanoma
# [7] = tested on: TK-10 renal
# [8] = tested on: T-47D breast
# [9] = tested on: NCI-H226 lung
# [10] = tested on: SK-MEL-28 melanoma
# [11] = tested on: A549 NSCLC
# [12] = tested on: NCI-H322M lung
# [13] = tested on: RPMI-8226 leukemia
# [14] = tested on: RXF 393 renal
# [15] = tested on: SN12C renal
# [16] = tested on: COLO 205 colon
# [17] = tested on: SF-268 CNS
# [18] = tested on: SW-620 colon
# [19] = tested on: SF-295 CNS
# [20] = tested on: SR leukemia
# [21] = tested on: OVCAR-8 ovarian
# [22] = tested on: SF-539 CNS
# [23] = tested on: HT29 colon
# [24] = tested on: MALME-3M melanoma
# [25] = tested on: SNB-75 CNS
# [26] = tested on: SNB-19 CNS
# [27] = tested on: IGROV1 ovarian
# [28] = tested on: KM12 colon
# [29] = tested on: UACC-257 melanoma
# [30] = tested on: UO-31 renal
# [31] = tested on: MDA-MB-231 breast
# [32] = tested on: HOP-92 NSCLC
# [33] = tested on: CAKI-1 renal
# [34] = tested on: LOX IMVI melanoma
# [35] = tested on: HCC-2998 colon
# [36] = tested on: NCI-H460 NSCLC
# [37] = tested on: NCI-H522 lung
# [38] = tested on: OVCAR-3 ovarian
# [39] = tested on: HOP-62 NSCLC
# [40] = tested on: HL-60(TB) leukemia
# [41] = tested on: UACC-62 melanoma
# [42] = tested on: HCT-15 colon
# [43] = tested on: CCRF-CEM leukemia
# [44] = tested on: K-562 leukemia
# [45] = tested on: NCI/ADR-RES ovarian
# [46] = tested on: ACHN renal
# [47] = tested on: U251 glioblastoma
# [48] = tested on: MCF7 breast
# [49] = tested on: MOLT-4 leukemia
# [50] = tested on: HS 578T breast
# [51] = tested on: 786-0 renal
# [52] = tested on: OVCAR-5 ovarian
# [53] = tested on: SK-MEL-5 melanoma
# [54] = tested on: EKVX NSCLC
# [55] = tested on: DU-145 prostate
# [56] = tested on: NCI-H23 lung
# [57] = tested on: PC-3 prostate
# [58] = tested on: BT-549 breast
smiles,measurement,setting,value
CN(C)CC(=O)N1CCC(c2ccc(NC(=O)c3ncc(C#N)[nH]3)c(C3=CCCCC3)c2)CC1,GI50,[1],3.62 µM
same,TGI,[1],13.3 µM
same,GI50,[2],3 µM
same,TGI,[2],9.64 µM
same,GI50,[3],4.3 µM
same,TGI,[3],9.35 µM
same,GI50,[4],15.5 µM
same,TGI,[4],28.9 µM
same,GI50,[5],2.04 µM
same,TGI,[5],3.91 µM
same,GI50,[6],1.89 µM
same,TGI,[6],3.71 µM
same,GI50,[7],8.66 µM
same,TGI,[7],20.8 µM
same,GI50,[8],12.1 µM
same,TGI,[8],24.5 µM
same,GI50,[9],3.85 µM
same,TGI,[9],14.2 µM
same,GI50,[10],1.8 µM
same,TGI,[10],3.28 µM
same,GI50,[11],4.25 µM
same,TGI,[11],14.8 µM
same,GI50,[12],7.63 µM
same,TGI,[12],20.1 µM
same,GI50,[13],4.07 µM
same,TGI,[13],15.3 µM
same,GI50,[14],5.03 µM
same,TGI,[14],17.2 µM
same,GI50,[15],1.51 µM
same,TGI,[15],13 µM
same,GI50,[16],3.56 µM
same,TGI,[16],11.7 µM
same,GI50,[17],6.84 µM
same,TGI,[17],19.4 µM
same,GI50,[18],10.4 µM
same,TGI,[18],22.2 µM
same,GI50,[19],3.47 µM
same,TGI,[19],11.3 µM
same,GI50,[20],2.44 µM
same,TGI,[20],5.54 µM
same,GI50,[21],10.6 µM
same,TGI,[21],22.4 µM
same,GI50,[22],3.02 µM
same,TGI,[22],13 µM
same,GI50,[23],1.71 µM
same,TGI,[23],3.26 µM
same,GI50,[24],1.66 µM
same,TGI,[24],3.57 µM
same,GI50,[25],4.4 µM
same,TGI,[25],15.6 µM
same,GI50,[26],9.85 µM
same,TGI,[26],21.5 µM
same,GI50,[27],10.3 µM
same,TGI,[27],22 µM
same,GI50,[28],0.141 µM
same,TGI,[28],3.52 µM
same,GI50,[29],1.98 µM
same,TGI,[29],3.52 µM
same,GI50,[30],12.1 µM
same,TGI,[30],24.7 µM
same,GI50,[31],6.96 µM
same,TGI,[31],19.2 µM
same,GI50,[32],1.43 µM
same,TGI,[32],10.8 µM
same,GI50,[33],4.11 µM
same,TGI,[33],14.9 µM
same,GI50,[34],3.32 µM
same,TGI,[34],10.6 µM
same,GI50,[35],2.48 µM
same,TGI,[35],5.33 µM
same,GI50,[36],5.42 µM
same,TGI,[36],16.8 µM
same,GI50,[37],10.6 µM
same,TGI,[37],22.4 µM
same,GI50,[38],10.6 µM
same,TGI,[38],22.4 µM
same,GI50,[39],4.18 µM
same,TGI,[39],14.8 µM
same,GI50,[40],2.06 µM
same,TGI,[40],4.49 µM
same,GI50,[41],1.87 µM
same,TGI,[41],3.6 µM
same,GI50,[42],1.82 µM
same,TGI,[42],3.58 µM
same,GI50,[43],3.27 µM
same,TGI,[43],10.7 µM
same,GI50,[44],2.97 µM
same,TGI,[44],11.3 µM
same,GI50,[45],15.7 µM
same,TGI,[45],29.1 µM
same,GI50,[46],7.59 µM
same,TGI,[46],20 µM
same,GI50,[47],5.48 µM
same,TGI,[47],17.6 µM
same,GI50,[48],2.72 µM
same,TGI,[48],10.7 µM
same,GI50,[49],2.61 µM
same,TGI,[49],7.17 µM
same,GI50,[50],2.66 µM
same,TGI,[50],6.73 µM
same,GI50,[51],1.93 µM
same,TGI,[51],4.41 µM
same,GI50,[52],4.13 µM
same,TGI,[52],13.8 µM
same,GI50,[53],1.7 µM
same,TGI,[53],4.34 µM
same,GI50,[54],12.5 µM
same,TGI,[54],25 µM
same,GI50,[55],10.4 µM
same,TGI,[55],22.2 µM
same,GI50,[56],2.93 µM
same,TGI,[56],10.7 µM
same,GI50,[57],5.35 µM
same,TGI,[57],17.3 µM
same,GI50,[58],2.4 µM
same,TGI,[58],9.81 µM
